Consider 73 compounds from PubChem BioAssay AID2740 (NMMLSC, 2010).

Molecules are shown by their SMILES. Calls of active or inactive are those of the source.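 The calls were made as follows: active = compounds whose fitted half-maximal concentration for changing the GFP signal is at or below a set limit; inactive = the rest.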

A short description of the assay: TOR pathway RPL19A-GFP modulators, concentration series – cell-based, S. cerevisiae, flow cytometry, MLPCN hits, dose response (AID 2740).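 Also: background is signal of the same compound in parental non-GFP s288c yeast.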 The settings on record: S. cerevisiae RPL19A-GFP strain, flow cytometry fluorescence, 3 h; at 33 µM (top of the series).
Take `CC(=O)Oc1oc(-c2ccccc2)nc1C=Nc1ccc(N(C)C)cc1`: the GFP fluorescence, lower = active (kMESF (background-subtracted)) is 41.6 (inactive).

In the case of `O=C(/C=C/c1ccc(Cl)c([N+](=O)[O-])c1)c1cccnc1`, the GFP fluorescence, lower = active (kMESF (background-subtracted)) was 36.9 (inactive).

For `O=C1N(c2ccccc2C(F)(F)F)O[C@@]1(c1ccccc1)C1CCCCC1`, the GFP fluorescence, lower = active (kMESF (background-subtracted)) was 37.6 (inactive). For the compound `Cc1c(C(=O)Nc2nc(-c3ccccn3)cs2)oc2ccccc12`, the GFP fluorescence, lower = active (kMESF (background-subtracted)) is 33.3 (inactive). For `O=C(Oc1c(Cl)cc(Cl)c2cccnc12)c1cccs1` the value was 36.1 (inactive). For `Cc1c(Br)c(=O)oc2c(Br)c(O)c(O)cc12`, the GFP fluorescence, lower = active (kMESF (background-subtracted)) is 38.1 (inactive). For `COC(=O)c1cc(N2C(=O)C3C(C2=O)C2(C)C=CC3(C)O2)ccc1Cl` (stereo not drawn) the value was 28.8 (inactive); for `Cc1[nH]c(-c2ccccn2)nc(=S)c1Cl`, 30.8 (inactive). For `CCCCC(=O)NNC(=S)NC(=O)c1ccc(C)cc1`, the GFP fluorescence, lower = active (kMESF (background-subtracted)) was 42.3 (inactive). For `CCN1/C(=C/c2ccc3cc(C)ccc3[n+]2CC)Sc2ccc3sccc3c21` the value was 31.5 (inactive).

Turning to `N=C1/C(=C\c2coc3ccccc3c2=O)C(=O)N=C2SC(c3ccncc3)=NN12`, the GFP fluorescence, lower = active (kMESF (background-subtracted)) was 25.5 (inactive).

In the case of `O=C(OCn1ncc(Br)c(Br)c1=O)c1c(F)cccc1F`, the GFP fluorescence, lower = active (kMESF (background-subtracted)) was 37.9 (inactive). For `COc1ccc(N2CCN(C(=O)c3ccccc3)CC2)c([N+](=O)[O-])c1` the value was 47.4 (inactive); for `COc1cccc(/C=C2\C(=O)N(c3cccc(C)c3)C(=O)c3ccccc32)c1`, 42.4 (inactive); for `N/C(Cc1ccc(Cl)cc1)=N\OC(=O)c1cccc2ccccc12`, 45.3 (inactive).

In the case of `O=S(=O)(CCN(CCS(=O)(=O)C(F)(F)F)CC1CCCO1)C(F)(F)F` (stereo not drawn), the GFP fluorescence, lower = active (kMESF (background-subtracted)) is 27.1 (inactive).

On to `Cc1ccc(C)c(/C=C/C(=O)c2ccccc(=O)c2O)c1`, for which the GFP fluorescence, lower = active (kMESF (background-subtracted)) is 15.8 (inactive).

`Cc1cc(C)c(OCC(=O)Nc2nc(-c3ccccn3)cs2)c(C)c1`: the GFP fluorescence, lower = active (kMESF (background-subtracted)) is 39.3 (inactive).

As for `C/C(=N\Nc1ncnc2sc(C)c(C)c12)c1ccccn1`, the GFP fluorescence, lower = active (kMESF (background-subtracted)) was -2.55 (inactive). For `Cc1nn(C)c(C)c1N1C(=O)c2cccc3c(Br)ccc(c23)C1=O` the value was 40.3 (inactive). On to `CCN(CC)c1ccc(/C=C2/C(=O)c3ccc(C(=O)O)cc3C2=O)cc1`, for which the GFP fluorescence, lower = active (kMESF (background-subtracted)) was 38.3 (inactive).

Take `O=C1ON=C(c2ccccc2)/C1=C/c1ccc(-c2ccccc2[N+](=O)[O-])o1`: the GFP fluorescence, lower = active (kMESF (background-subtracted)) is 25.3 (inactive). For `COc1ccc(CCNC2=C(Cl)C(=O)N(CCc3ccccc3)C2=O)cc1OC` the value was 40 (inactive); for `CCOc1ccc(C(Nc2cccnc2)c2cc(Cl)c3cccnc3c2O)cc1` (stereo not drawn), 28.3 (inactive). For `COc1ccc(N=Nc2ccc(O)c3ncccc23)cc1` the value was 37.9 (inactive); for `CS(=O)(=O)c1sc(C#N)c2c1C(=O)CC(c1ccccc1)C2` (stereo not drawn), 38.5 (inactive). For `Cc1ccc(/C=C2\SC(=S)N(Cc3ccccc3)C2=O)o1` the value was 39.4 (inactive). As for `On1ccccc1=S`, the GFP fluorescence, lower = active (kMESF (background-subtracted)) was 38 (inactive). For `COc1ccc(NC2=C(Cl)C(=O)N(CCc3ccccc3)C2=O)cc1` the value was 41.6 (inactive); for `Cc1ccc2c(c1)c(/C=C/c1cc[n+](C)cc1)c(C)n2C`, 40.7 (inactive). For `O=C(NC(=S)NNC(=O)[C@H]1C[C@@H]1c1ccccc1)c1cccc(F)c1` the value was 45.1 (inactive); for `Cc1cc(C)c2c(c1)/C(=C/C(=O)c1ccc(Br)s1)C(=O)N2`, 46.6 (inactive). For `O=C(/C=C/c1ccccc1)c1cc(Br)ccc(=O)c1O` the value was 4.04 (inactive); for `COc1cc(NC(=O)c2cccc(C)c2)ccc1NC(=O)c1cc2ccccc2o1`, 39.6 (inactive); for `CC(=O)n1cc(C(C[N+](=O)[O-])SCCN)c2ccccc21` (stereo not drawn), 21.4 (inactive). Regarding `COc1ccccc1NC1=C(Cl)C(=O)N(c2ccccc2)C1=O`, the GFP fluorescence, lower = active (kMESF (background-subtracted)) was 39.5 (inactive).

For the compound `Cc1[nH]n(-c2ncc(-c3ccccc3)s2)c(=O)c1C(c1ccc(Cl)cc1)C(C#N)C#N` (stereo not drawn), the GFP fluorescence, lower = active (kMESF (background-subtracted)) is 42 (inactive). For `O=C(Nc1cccc(-c2csc(Nc3ccccc3)n2)c1)c1ccccc1` the value was 33.7 (inactive); for `O=C(COc1ccccc1)NNC(=S)NC(=O)c1ccccc1`, 44.4 (inactive). For `Cc1ccc(NC(=O)c2nc(S(=O)(=O)Cc3ccccc3)ncc2Cl)cc1` the value was 43 (inactive); for `COc1cc(/C=C2\CC/C(=C\c3cc(OC)c(O)c(OC)c3)C2=O)cc(OC)c1O`, 39.6 (inactive); for `CC[C@@]1(c2ccccc2OC)ON(c2ccccc2C(F)(F)F)C1=O`, 35.9 (inactive). For `O=C1C=C(Nc2ccc(Cl)cc2)C(=O)N1c1ccc(Cl)cc1` the value was 39.1 (inactive); for `CC(Oc1cccc(Cl)c1)C(=O)Nc1nc(-c2ccccn2)cs1` (stereo not drawn), 30 (inactive). Turning to `O=[N+]([O-])c1cc(CN2CCN(c3ccccc3)CC2)c(O)c2ncccc12`, the GFP fluorescence, lower = active (kMESF (background-subtracted)) was 45.6 (inactive).

Turning to `CCc1sc(C(=O)Nc2nc(-c3ccccn3)cs2)cc1C`, the GFP fluorescence, lower = active (kMESF (background-subtracted)) was 21.1 (inactive). For `Cc1ccc(N=Nc2ccc(O)c3ncccc23)cc1` the value was 39.8 (inactive); for `CCOC(=O)CSC1=NC(=O)/C(=C\c2ccc(Cl)cc2)S1`, 31.9 (inactive); for `CN(C)c1ccc(N=Cc2nc(-c3ccccc3)oc2OC(=O)c2cccc(Cl)c2)cc1`, 44.1 (inactive). `Oc1ccc2ccccc2c1/C=N/Nc1nnc(-c2ncc[nH]2)c2ccccc12`: the GFP fluorescence, lower = active (kMESF (background-subtracted)) is 4.23 (inactive). For `Oc1c(CN2CCN(c3ccc(F)cc3)CC2)cc(Cl)c2cccnc12` the value was 40.4 (inactive); for `O=C(Nc1nnc(-c2ccc(Cl)cc2)o1)c1ccccc1Br`, 37 (inactive). For `COC(=O)CCS(=O)(=O)c1nc(-c2ccccc2)cc(C(F)(F)F)n1` the value was 37.3 (inactive); for `Nc1ccccc1C#CC(=O)c1ccccc1`, 21 (inactive). For `CC(=O)[C@]1(O)Cc2c(O)c3c(c(O)c2[C@@H](O[C@H]2C[C@H](N)[C@H](O)[C@H](C)O2)C1)C(=O)c1ccccc1C3=O` the value was 42 (inactive). Consider `Cc1ccc(S(=O)(=O)Cc2cc(F)c([N+](=O)[O-])cc2[N+](=O)[O-])cc1`, for which the GFP fluorescence, lower = active (kMESF (background-subtracted)) was 7.75 (inactive). For `O=C(COc1ccc(F)cc1Cl)Nc1nc(-c2ccccn2)cs1`, the GFP fluorescence, lower = active (kMESF (background-subtracted)) is 35.8 (inactive). For `Cc1cc(/C=C2/SC(=S)N(c3cccc(Cl)c3)C2=O)c(C)n1-c1cccnc1` the value was 42.7 (inactive); for `O=C(Oc1oc(-c2ccco2)nc1C=Nc1ccccc1)c1ccco1`, 38.5 (inactive). `O=C1C(Cl)=C(N2CCN(Cc3ccccc3)CC2)C(=O)N1c1ccccc1`: the GFP fluorescence, lower = active (kMESF (background-subtracted)) is 40.2 (inactive). For `CCCCC(=O)NC(=S)NNC(=O)CCc1ccccc1` the value was 37.8 (inactive). For `O=C(NNC(=S)NC(=O)C12CC3CC(CC(C3)C1)C2)c1ccncc1` the value was 46.9 (inactive). For `O=C(Nc1ccccc1)ON=C1CCCC1` the value was 42.1 (inactive). `Oc1ccc(CNc2ccccc2)c2cccnc12`: the GFP fluorescence, lower = active (kMESF (background-subtracted)) is 42.2 (inactive). For the compound `O=c1oc2ccccc2c(O)c1[C@H]1c2ccc(O)cc2Oc2c1c(=O)oc1ccccc21`, the GFP fluorescence, lower = active (kMESF (background-subtracted)) was 34.8 (inactive). For `C#CCOCCOCCOCCNc1nc(N2CCN(C(=O)CCCCCCCCCCNC(=O)[C@H](CCCCN)n3cc(CCCC(=O)O)nn3)CC2)nc(N2CCN(C(=O)CCCCCCCCCCNC(=O)[C@H](CCCN=C(N)N)n3cc(C[C@@H](C)CC)nn3)CC2)n1` the value was 27.1 (inactive); for `O=c1c2cc(Br)ccc2nc(-c2ccc([N+](=O)[O-])cc2)n1O`, 15.6 (inactive); for `CS(=O)(=O)N1N=C(c2ccccc2)CC1c1ccc2c(c1)OCO2` (stereo not drawn), 36.9 (inactive). For `CSC1=NS(=O)(=O)c2c(C)nn(C)c2S1` the value was 35.2 (inactive).

Turning to `CCSc1nnc(NC(=O)c2ccccn2)s1`, the GFP fluorescence, lower = active (kMESF (background-subtracted)) is 50 (inactive). Regarding `CCCOc1ccc(C(=O)NNC(=S)NC(=O)CC)cc1`, the GFP fluorescence, lower = active (kMESF (background-subtracted)) is 50.5 (inactive).

On to `COc1ccc(C(c2c(C)[nH]n(C(N)=S)c2=O)C(C#N)C#N)cc1` (stereo not drawn), for which the GFP fluorescence, lower = active (kMESF (background-subtracted)) is 24.7 (inactive). For `O=c1c2sc(-c3ccccc3)cc2nc2n1CCC2` the value was 20.5 (inactive).
